From patent publication US12570675B2, “Boronic acid compounds” (LG CHEM, LTD., priority 2020, dated 2026)

biological target: Proteasome chymotrypsin-like activity (S26 protein from RPMI8226 cells) (Homo sapiens, UniProt P28074); format: biochemical; details: S26 protein from RPMI8226 cell extract 2 ug/well, substrate 20 uM, 37° C., 90 minutes; read-out: Proteasome chymotrypsin-like activity inhibition IC50
Experimental: The abilities to inhibit the proteasome activity of the compounds described in the Examples of the present invention and boronic acid drugs were evaluated as follows.
RPMI8226 cells, which is a multiple myeloma cell line, were cultured and then separated by a centrifuge, and washed twice with phosphate buffered saline (PBS). 20 mM of a tris-HCl (pH 8.0) buffer solution was added to the washed cells, and the cells were disrupted by a homogenizer and centrifuged to obtain S26 protein from the supernatant. Suc-Leu-Leu-Val-Tyr-AMC, for a fluorogenic substrate for the chymotrypsin-like activity of the proteasome, and Z-Leu-Leu-Glu-AMC, for a fluorogenic substrate for the caspase-like activity, were purchased from Calbiochem, EMD Millipore and used. Into each well of a 96-well plate (opaque, black round bottom), 20 ul of the S26 protein (final RPMI8226 cell extract concentration: 2 ug/well), 10 ul of S26 proteasome inhibitor serially diluted from 10 uM (final DMSO concentration: 0.5%), and 20 ul of the fluorogenic substrate for the proteasome chymotrypsin-like or caspase-like activity (final concentration: 20 uM) were added and mixed and allowed to react in a 37° C. incubator for 90 minutes. The fluorescence of the fluorogenic substrate was measured by FlexStation II Fluorometer (Molecular Devices). The fluorescence inhibited by the compound diluted at each concentration was measured as the relative percentage value for the amount obtained from the treatment only with the S26 protein and the fluorogenic substrate. IC50 (inhibitory concentration 50) was expressed in terms of a concentration that inhibits 50% of the maximum fluorescence induced by the fluorogenic substrate.

Proteasome chymotrypsin-like activity (S26 protein from RPMI8226 cells), sequence (P28074 60-263 limits assumed): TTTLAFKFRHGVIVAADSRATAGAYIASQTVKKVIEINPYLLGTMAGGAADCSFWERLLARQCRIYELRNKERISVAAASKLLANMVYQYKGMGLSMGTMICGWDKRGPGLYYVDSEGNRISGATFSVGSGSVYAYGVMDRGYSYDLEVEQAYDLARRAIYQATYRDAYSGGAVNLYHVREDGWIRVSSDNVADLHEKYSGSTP

Row | IC50 | SMILES
1 | < 10 nM | CC(C)C[C@H](NC(=O)C1(Cc2ccccc2)CC(CNC(=O)c2cccc(-c3ccccc3)n2)=NO1)B(O)O (stereo partly drawn) [Example 96, ((1R)-1-(5-benzyl-3-((6-phenylpicolinamido)methyl)-4,5-dihydroisoxazol-5-carboxamido)-3-methylbutyl)boronic acid]
2 | < 100 nM | CC(C)C[C@H](NC(=O)C1CC([C@H](CC(C)C)NC(=O)Cc2ccccc2)=NO1)B(O)O (stereo partly drawn) [Example 105, ((1R)-3-methyl-1-(3-((S)-3-methyl-1-(2-phenylacetamido)butyl)-4,5-dihydroisoxazol-5-carboxamido)butyl)boronic acid]
3 | < 250 nM | CC(C)C[C@H](NC(=O)C1CC(c2cccc(Oc3ccccn3)c2)=NO1)B(O)O (stereo partly drawn) [Example 41, ((1R)-3-methyl-1-(3-(3-(pyridin-2-yloxy)phenyl)-4,5-dihydroisoxazol-5-carboxamido)butyl)boronic acid]
4 | < 10 nM | Cc1cc(C(=O)NCC2=NOC(Cc3cccc(Cl)c3)(C(=O)N[C@@H](CC(C)C)B(O)O)C2)n(C(C)C)n1 (stereo partly drawn) [Example 225, ((1R)-1-(5-(3-chlorobenzyl)-3-((1-isopropyl-3-methyl-1H-pyrazol-5-carboxamido)methyl)-4,5-dihydroisoxazol-5-carboxamido)-3-methylbutyl)boronic acid]
5 | < 100 nM | CC(C)C[C@H](NC(=O)C1CC(CNC(=O)c2ccc(C(C)(C)C)cc2)=NO1)B(O)O (stereo partly drawn) [Example 70, ((1R)-1-(3-((4-(tert-butyl)benzamido)methyl)-4,5-dihydroisoxazol-5-carboxamido)-3-methylbutyl)boronic acid]
6 | < 10 nM | COc1ccc(-c2cccc(COCC3=NOC(Cc4ccccc4)(C(=O)N[C@@H](CC(C)C)B(O)O)C3)c2)cc1 (stereo partly drawn) [Example 56, ((1R)-1-(5-benzyl-3-(((4′-methoxy-[1,1′-biphenyl]-3-yl)methoxy)methyl)-4,5-dihydroisoxazol-5-carboxamido)-3-methylbutyl)boronic acid]
7 | < 10 nM | Cc1nc(C)c(C(=O)NCC2=NOC(Cc3cccc(Cl)c3)(C(=O)N[C@@H](CC(C)C)B(O)O)C2)s1 (stereo partly drawn) [Example 219, ((1R)-1-(5-(3-chlorobenzyl)-3-((2,4-dimethylthiazol-5-carboxamido)methyl)-4,5-dihydroisoxazol-5-carboxamido)-3-methylbutyl)boronic acid]
8 | < 10 nM | CC(C)C[C@H](NC(=O)C1(Cc2ccccc2)CC(CNC(=O)C2CCCc3ccccc32)=NO1)B(O)O (stereo partly drawn) [Example 108, ((1R)-1-(5-benzyl-3-((1,2,3,4-tetrahydronaphthalen-1-carboxamido)methyl)-4,5-dihydroisoxazol-5-carboxamido)-3-methylbutyl)boronic acid]
9 | < 10 nM | CC(C)C[C@H](NC(=O)C1(Cc2ccccc2)CC(COCc2cccc(-c3ccccc3)n2)=NO1)B(O)O (stereo partly drawn) [Example 55, [(1R)-1-[[5-benzyl-3-[(6-phenyl-2-pyridyl)methoxymethyl]-4H-1,2-oxazol-5-carbonyl]amino]-3-methyl-butyl]boronic acid]
10 | < 25 nM | CC(C)C[C@H](NC(=O)C1(Cc2ccccc2)CC(CNC(=O)c2ccnnc2)=NO1)B(O)O (stereo partly drawn) [Example 166, ((1R)-1-(5-benzyl-3-((pyridazin-4-carboxamido)methyl)-4,5-dihydroisoxazol-5-carboxamido)-3-methylbutyl)boronic acid]
11 | < 10 nM | CC(C)C[C@H](NC(=O)C1(Cc2ccccc2)CC(CNC(=O)c2cc(C(C)C)nn2C(C)C)=NO1)B(O)O (stereo partly drawn) [Example 227, ((1R)-1-(5-benzyl-3-((1,3-diisopropyl-1H-pyrazol-5-carboxamido)methyl)-4,5-dihydroisoxazol-5-carboxamido)-3-methylbutyl)boronic acid]
12 | < 250 nM | CC(C)C[C@H](NC(=O)C1CC(CCc2ccccc2)=NO1)B(O)O (stereo partly drawn) [Example 11, ((1R)-3-methyl-1-(3-penetyl-4,5-dihydroisoxazol-5-carboxamido)butyl)boronic acid]
13 | < 10 nM | Cc1cn2cccc(C(=O)NCC3=NOC(Cc4ccccc4)(C(=O)N[C@@H](CC(C)C)B(O)O)C3)c2n1 (stereo partly drawn) [Example 139, ((1R)-1-(5-benzyl-3-((2-methylimidazo[1,2-a]pyridin-8-carboxamido)methyl)-4,5-dihydroisoxazol-5-carboxamido)-3-methylbutyl)boronic acid]
14 | < 10 nM | O=C(NCC1=NOC(Cc2ccccc2)(C(=O)N[C@@H](Cc2ccccc2)B(O)O)C1)c1cccn2ccnc12 (stereo partly drawn) [Example 300, ((1R)-1-(5-benzyl-3-((imidazo[1,2-a]pyridin-8-carboxamido)methyl)-4,5-dihydroisoxazol-5-carboxamido)-2-phenylethyl)boronic acid]
15 | < 10 nM | CC(C)C[C@H](NC(=O)C1(C(O)c2ccccc2)CC(CNC(=O)c2nccc3ccccc23)=NO1)B(O)O (stereo partly drawn) [Example 131, ((1R)-1-(5-(hydroxy(phenyl)methyl)-3-((isoquinolin-1-carboxamido)methyl)-4,5-dihydroisoxazol-5-carboxamido)-3-methylbutyl)boronic acid]
16 | < 10 nM | Cc1cc(COCC2=NOC(Cc3ccccc3)(C(=O)N[C@@H](Cc3ccccc3)B(O)O)C2)ccn1 (stereo partly drawn) [Example 277, ((1R)-1-(5-benzyl-3-(((2-methylpyridin-4-yl)methoxy)methyl)-4,5-dihydroisoxazol-5-carboxamido)-2-phenylethyl)boronic acid]
17 | < 10 nM | CC(C)C[C@H](NC(=O)C1(Cc2ccccc2)CC(CNC(=O)c2cccc(C#N)n2)=NO1)B(O)O (stereo partly drawn) [Example 323]
18 | < 10 nM | CC(C)C[C@H](NC(=O)C1(Cn2cccn2)CC(CNC(=O)c2nccc3ccccc23)=NO1)B(O)O (stereo partly drawn) [Example 128, ((1R)-1-(5-((1H-pyrazol-1-yl)methyl)-3-((isoquinolin-1-carboxamido)methyl)-4,5-dihydroisoxazol-5-carboxamido)-3-methylbutyl)boronic acid]
19 | < 10 nM | COc1cccc(COCC2=NOC(Cc3ccccc3)(C(=O)N[C@@H](Cc3ccccc3)B(O)O)C2)c1 (stereo partly drawn) [Example 273, ((1R)-1-(5-benzyl-3-(((3-methoxybenzyl)oxy)methyl)-4,5-dihydroisoxazol-5-carboxamido)-2-phenylethyl)boronic acid]
20 | < 50 nM | COc1ccccc1C(=O)NCC1=NOC(C(=O)N[C@@H](CC(C)C)B(O)O)C1 (stereo partly drawn) [Example 103, ((1R)-1-(3-((2-methoxybenzamido)methyl)-4,5-dihydroisoxazol-5-carboxamido)-3-methylbutyl)boronic acid]
21 | < 10 nM | CC(C)C[C@H](NC(=O)C1(Cc2ccc(Cl)cc2)CC(CNC(=O)c2nccc3ccccc23)=NO1)B(O)O (stereo partly drawn) [Example 101, ((1R)-1-(5-(4-chlorobenzyl)-3-((isoquinolin-1-carboxamido)methyl)-4,5-dihydroisoxazol-5-carboxamido)-3-methylbutyl)boronic acid]
22 | < 10 nM | COC[C@@H](NC(=O)c1nccc2ccccc12)C1=NOC(Cc2ccccc2)(C(=O)N[C@@H](CC(C)C)B(O)O)C1 (stereo partly drawn) [Example 185, ((1R)-1-(5-benzyl-3-((S)-1-(isoquinolin-1-carboxamido)-2-methoxyethyl)-4,5-dihydroisoxazol-5-carboxamido)-3-methylbutyl)boronic acid]
23 | < 25 nM | CC(C)C[C@H](NC(=O)C1(Cc2ccccc2)CC(CN(C)C(=O)c2nccc3ccccc23)=NO1)B(O)O (stereo partly drawn) [Example 99, ((1R)-1-(5-benzyl-3-((N-methylisoquinolin-1-carboxamido)methyl)-4,5-dihydroisoxazol-5-carboxamido)-3-methylbutyl)boronic acid]
24 | < 250 nM | CC(C)C[C@H](NC(=O)C1CC(c2ccc(-c3ccccc3)cc2)=NO1)B(O)O (stereo partly drawn) [Example 27, ((1R)-1-(3-([1,1′-biphenyl]-4-yl)-4,5-dihydroisoxazol-5-carboxamido)-3-methylbutyl)boronic acid]
25 | < 25 nM | COCCn1nccc1C(=O)NCC1=NOC(Cc2ccccc2)(C(=O)N[C@@H](CC(C)C)B(O)O)C1 (stereo partly drawn) [Example 191, ((1R)-1-(5-benzyl-3-((1-(2-methoxyethyl)-1H-pyrazol-5-carboxamido)methyl)-4,5-dihydroisoxazol-5-carboxamido)-3-methylbutyl)boronic acid]
26 | < 10 nM | CC(C)C[C@H](NC(=O)C1(Cc2ccccc2)CC(CNC(=O)c2ccc(Cl)cc2)=NO1)B(O)O (stereo partly drawn) [Example 287]
27 | < 10 nM | O=C(NCC1=NOC(Cc2ccccc2)(C(=O)N[C@@H](Cc2ccccc2)B(O)O)C1)c1cccc2nccn12 (stereo partly drawn) [Example 302, ((1R)-1-(5-benzyl-3-((imidazo[1,2-a]pyridin-5-carboxamido)methyl)-4,5-dihydroisoxazol-5-carboxamido)-2-phenylethyl)boronic acid]
28 | < 10 nM | COc1cccc(C(=O)NCC2=NOC(Cc3ccccc3)(C(=O)N[C@@H](CC(C)C)B(O)O)C2)c1 (stereo partly drawn) [Example 284]
29 | < 10 nM | CC(C)C[C@H](NC(=O)C1(Cc2ccccc2)CC(COc2cccc(Cl)c2)=NO1)B(O)O (stereo partly drawn) [Example 258]
30 | < 25 nM | CC(C)C[C@H](NC(=O)C1(Cc2ccccc2)CC(CNC(=O)c2cocn2)=NO1)B(O)O (stereo partly drawn) [Example 168, ((1R)-1-(5-benzyl-3-((oxazol-4-carboxamido)methyl)-4,5-dihydroisoxazol-5-carboxamido)-3-methylbutyl)boronic acid]
